Patent US20220206003A1, “BIOMARKERS FOR PREDICTING RESISTANCE TO CANCER DRUGS” (INSTITUT CURIE, priority 2019, published 2022)
Like-named read-outs stand apart in the source and are kept apart here.

Legend:
[1] = system: HBCx-95 xenografts (triple negative breast cancer PDX); assay: Capecitabine treatment of HBCx-95 patient-derived xenografts (relative tumor volume, response); type: in vivo, Swiss nude mice; conditions: HBCx-95 xenograft, mouse #40, oral 540 mg/kg/day, second round after recurrence
Source text: Female Swiss nude mice were purchased from Charles River Laboratories and maintained under specific pathogen-free conditions. Their care and housing were in accordance with institutional guidelines and the rules of the French Ethics Committee (project authorization no. 02163.02). A PDX model of luminal breast cancer (HBCx-22) was previously established at Institut Curie from untreated early-stage luminal breast cancer with informed consent from the patient. Acquisition of a resistant phenotype for a derivative of HBCx-22, HBCx-22-TamR, was previously established and maintained. A PDX from a residual triple negative breast cancer post neo-adjuvant chemotherapy (HBCx-95) was previously established at Institut Curie with informed consent from the patient. HBCx-95 xenografts (n=6) were treated with Capecitabine (Xeloda, Roche Laboratories) orally at a dose of 540 mg/kg/day, 5 days a week for 6 weeks. Relative tumor volumes (RTV, mm3) were calculated. Mice with recurrent tumors were treated for a second round of Capecitabine when PDX reached a volume of over 200 mm^3 (mice #35, #40 & #33).

[2] = system: HBCx-22 / HBCx-22-TamR luminal ER+ breast PDX; conditions: cited from earlier work

| SMILES | response of recurrent PDX tumor to a second round of Capecitabine [1] | response of PDX to Tamoxifen ([2]; HBCx-22-TamR tumor derivative, previously characterized) | response of PDX to Tamoxifen ([2]; HBCx-22 luminal ER+ breast PDX) |
| --- | --- | --- | --- |
| CCCCCOC(=O)Nc1nc(=O)n([C@@H]2O[C@H](C)[C@@H](O)[C@H]2O)cc1F [Capecitabine] | did not respond |  |  |
| CC/C(=C(\c1ccccc1)c1ccc(OCCN(C)C)cc1)c1ccccc1 [Tamoxifen] |  | acquired resistance | responsive |
